Laboratory results reported in ChEMBL document CHEMBL1201862, “PubChem BioAssay data set” (2004).
Activity calls are given as the source filed them. Non-standard residues stand in square brackets, D forms with d. Residues, ends and D or L forms follow the SMILES beside them. ξ: configuration not given here. ξLac(3-iPr) = CC(C)CC(O)C(=O)O; NMeV = CN[CH](C(=O)O)C(C)C; NMeA = CN[CH](C)C(=O)O; βAla = NCCC(=O)O

Key:
[1] = target: 26S proteasome non-ATPase regulatory subunit 14 (Homo sapiens, UniProt O00487); experiment: inhibition of proteasome subunit RPN11 – biochemical, fluorescence polarization, uHTS hits, confirmation (AID 602368); type: functional
Chain of 26S proteasome non-ATPase regulatory subunit 14 (O00487 whole entry): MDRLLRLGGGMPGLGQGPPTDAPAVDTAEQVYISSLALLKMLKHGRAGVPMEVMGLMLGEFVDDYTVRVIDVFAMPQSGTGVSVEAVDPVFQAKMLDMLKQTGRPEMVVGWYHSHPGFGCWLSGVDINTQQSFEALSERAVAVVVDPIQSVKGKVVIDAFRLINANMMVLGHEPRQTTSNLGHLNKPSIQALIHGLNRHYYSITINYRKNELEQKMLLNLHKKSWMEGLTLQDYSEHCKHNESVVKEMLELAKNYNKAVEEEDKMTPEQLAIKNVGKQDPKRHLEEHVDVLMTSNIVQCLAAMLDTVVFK

[2] = target: 72 kDa type IV collagenase (Homo sapiens, UniProt P08253); experiment: Dose Response validation of uHTS RPN11 inhibitor hits using a MMP-2 Fluorescence assay.; type: functional
Chain of 72 kDa type IV collagenase (P08253 whole entry): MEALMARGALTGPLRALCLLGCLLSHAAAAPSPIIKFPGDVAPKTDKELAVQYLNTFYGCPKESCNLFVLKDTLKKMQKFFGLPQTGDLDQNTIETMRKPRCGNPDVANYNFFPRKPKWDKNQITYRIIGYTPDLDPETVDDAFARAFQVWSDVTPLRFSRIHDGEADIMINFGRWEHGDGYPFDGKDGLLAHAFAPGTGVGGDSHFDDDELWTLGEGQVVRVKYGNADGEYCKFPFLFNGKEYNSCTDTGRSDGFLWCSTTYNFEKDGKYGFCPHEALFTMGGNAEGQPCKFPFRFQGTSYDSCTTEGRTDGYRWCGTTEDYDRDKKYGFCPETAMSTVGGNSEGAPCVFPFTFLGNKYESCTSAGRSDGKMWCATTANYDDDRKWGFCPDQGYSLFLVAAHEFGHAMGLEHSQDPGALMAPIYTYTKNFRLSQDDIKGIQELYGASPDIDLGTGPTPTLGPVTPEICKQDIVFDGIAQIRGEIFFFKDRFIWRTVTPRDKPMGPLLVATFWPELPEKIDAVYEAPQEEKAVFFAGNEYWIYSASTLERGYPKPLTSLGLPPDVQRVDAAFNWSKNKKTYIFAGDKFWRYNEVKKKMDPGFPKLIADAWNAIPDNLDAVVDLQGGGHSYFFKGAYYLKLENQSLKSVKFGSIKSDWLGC

Prothrombin = Prothrombin (Bos taurus, UniProt P00735); experiment: thrombin inhibition, dose response, biochemical, fluorescence polarization, uHTS hits (AID 602369); type: functional
[3] = target: T1, Mannose-6-phosphate isomerase (Homo sapiens, UniProt P34949); experiment: human PMI inhibitors, high substrate, primary screen, biochemical, fluorescence intensity, high mannose 6-phosphate (AID 1220)
T1 sequence (P34949 whole entry): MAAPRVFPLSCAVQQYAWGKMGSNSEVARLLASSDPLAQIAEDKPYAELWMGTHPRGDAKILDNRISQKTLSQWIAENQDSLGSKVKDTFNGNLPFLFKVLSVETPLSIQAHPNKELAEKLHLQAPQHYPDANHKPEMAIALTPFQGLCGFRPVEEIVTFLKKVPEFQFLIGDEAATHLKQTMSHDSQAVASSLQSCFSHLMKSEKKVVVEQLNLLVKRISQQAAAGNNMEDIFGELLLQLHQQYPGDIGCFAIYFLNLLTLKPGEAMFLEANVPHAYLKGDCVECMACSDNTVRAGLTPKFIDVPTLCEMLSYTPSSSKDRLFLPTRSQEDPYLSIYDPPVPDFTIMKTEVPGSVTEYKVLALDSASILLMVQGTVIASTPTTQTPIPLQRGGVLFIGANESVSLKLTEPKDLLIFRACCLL

[4] = target: T2, High affinity choline transporter 1 (Homo sapiens, UniProt Q9GZV3); experiment: CHT inhibitors, dose response, cell-based, 5-point CRC, membrane potential dye (AID 504840); type: functional
T2 sequence (Q9GZV3 whole entry): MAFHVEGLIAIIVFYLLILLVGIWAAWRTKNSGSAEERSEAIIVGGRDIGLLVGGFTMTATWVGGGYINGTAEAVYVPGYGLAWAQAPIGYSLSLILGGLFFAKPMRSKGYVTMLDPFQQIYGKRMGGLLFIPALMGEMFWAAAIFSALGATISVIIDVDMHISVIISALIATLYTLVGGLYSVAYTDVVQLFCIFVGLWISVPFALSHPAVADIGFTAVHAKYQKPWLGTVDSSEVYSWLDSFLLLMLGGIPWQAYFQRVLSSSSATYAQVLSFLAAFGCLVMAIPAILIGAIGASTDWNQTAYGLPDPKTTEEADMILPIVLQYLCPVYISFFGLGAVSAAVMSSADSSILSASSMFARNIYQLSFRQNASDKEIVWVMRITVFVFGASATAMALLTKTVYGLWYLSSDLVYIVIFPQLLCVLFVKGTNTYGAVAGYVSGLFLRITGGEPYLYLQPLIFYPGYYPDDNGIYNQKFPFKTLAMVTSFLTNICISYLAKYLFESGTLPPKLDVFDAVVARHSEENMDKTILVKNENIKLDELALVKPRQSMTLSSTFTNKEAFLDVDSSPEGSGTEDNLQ

[5] = target: T3, Rac GTPase-activating protein 1 (Homo sapiens, UniProt Q9H0H5); experiment: MgcRacGAP GTPase-activating activity inhibitors, confirmation, biochemical, ADP Hunter fluorescence, primary and confirmatory (AID 624330); type: functional
T3 sequence (Q9H0H5 whole entry): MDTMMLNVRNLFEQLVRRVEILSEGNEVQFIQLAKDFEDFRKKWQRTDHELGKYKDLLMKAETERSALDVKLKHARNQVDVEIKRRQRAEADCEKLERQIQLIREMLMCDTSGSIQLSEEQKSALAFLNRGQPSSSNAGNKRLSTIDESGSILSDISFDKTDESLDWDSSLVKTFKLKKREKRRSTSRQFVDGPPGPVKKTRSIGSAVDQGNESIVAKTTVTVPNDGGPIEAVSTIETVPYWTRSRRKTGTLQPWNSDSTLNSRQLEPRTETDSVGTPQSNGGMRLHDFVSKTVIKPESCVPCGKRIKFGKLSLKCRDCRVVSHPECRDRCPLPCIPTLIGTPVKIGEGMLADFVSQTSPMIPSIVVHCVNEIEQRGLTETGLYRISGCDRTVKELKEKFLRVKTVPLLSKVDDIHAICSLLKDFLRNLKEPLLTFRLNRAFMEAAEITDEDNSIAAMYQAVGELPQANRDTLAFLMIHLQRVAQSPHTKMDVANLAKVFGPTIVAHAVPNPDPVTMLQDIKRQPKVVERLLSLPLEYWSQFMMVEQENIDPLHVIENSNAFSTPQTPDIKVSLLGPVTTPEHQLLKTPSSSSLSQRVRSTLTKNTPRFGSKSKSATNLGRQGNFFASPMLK

Escherichia coli [6] = experiment: microbe, parasite or virus in culture
Escherichia coli [7] = experiment: microbe, parasite or virus in culture; remark: listed apart in the source
[8] = Shn3 3'UTR reporter inhibitors, dose response, cell-based, Clone20 osteoblasts, firefly luciferase, cherry-picked (AID 624132); type: functional;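 note: firefly luciferase luminescence from reporter carrying the Shn3 3'UTR in osteoblasts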
[9] = HepG2 cell cytotoxicity, dose response, cytotoxicity control for Shn3 inhibitor project, CellTiter-Glo, cherry-picked (AID 624134); type: functional, cell-based
[10] = control 3'UTR Renilla luciferase suppression, dose response, counter-screen for Shn3 inhibitor project, cell-based, Clone20-Shn3RL, cherry-picked (AID 624133); type: functional
[11] = target: Induced myeloid leukemia cell differentiation protein Mcl-1 (Homo sapiens, UniProt Q07820); type: functional
Chain of Induced myeloid leukemia cell differentiation protein Mcl-1 (Q07820 whole entry): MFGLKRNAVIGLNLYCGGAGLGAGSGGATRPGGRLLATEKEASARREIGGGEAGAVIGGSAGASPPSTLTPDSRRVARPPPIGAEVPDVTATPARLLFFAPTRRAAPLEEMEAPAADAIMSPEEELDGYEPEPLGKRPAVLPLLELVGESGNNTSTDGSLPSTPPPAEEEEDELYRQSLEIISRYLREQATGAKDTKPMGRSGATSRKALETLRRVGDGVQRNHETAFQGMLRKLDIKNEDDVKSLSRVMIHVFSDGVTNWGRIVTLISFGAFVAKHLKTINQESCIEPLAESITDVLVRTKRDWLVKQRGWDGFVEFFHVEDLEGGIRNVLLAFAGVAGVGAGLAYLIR

Vero [12] = experiment: cells; type: functional, cell-based; settings: Chlorocebus sabaeus
Vero [13] = experiment: cells; type: functional; settings: Chlorocebus sabaeus
INS1 = experiment: inhibitors of cytokine-induced nitrite release, dose response, cell-based, Griess absorbance, INS-1E, dry powder (AID 488866); type: functional; settings: Rattus norvegicus
[14] = target: Delta-type opioid receptor (Homo sapiens, UniProt P41143); experiment: Counterscreen for agonists of heterodimerization of the mu 1 (OPRM1) and delta 1 (OPRD1) opioid receptors: Luminescence-based cell-based high throughput dose response assay to identify agonists of OPRD1 homodimerization. [Related pubchem assays (depositor defined):AID504326, AID504355, AID504692, AID504904, AID504905]; type: functional
Chain of Delta-type opioid receptor (P41143 whole entry): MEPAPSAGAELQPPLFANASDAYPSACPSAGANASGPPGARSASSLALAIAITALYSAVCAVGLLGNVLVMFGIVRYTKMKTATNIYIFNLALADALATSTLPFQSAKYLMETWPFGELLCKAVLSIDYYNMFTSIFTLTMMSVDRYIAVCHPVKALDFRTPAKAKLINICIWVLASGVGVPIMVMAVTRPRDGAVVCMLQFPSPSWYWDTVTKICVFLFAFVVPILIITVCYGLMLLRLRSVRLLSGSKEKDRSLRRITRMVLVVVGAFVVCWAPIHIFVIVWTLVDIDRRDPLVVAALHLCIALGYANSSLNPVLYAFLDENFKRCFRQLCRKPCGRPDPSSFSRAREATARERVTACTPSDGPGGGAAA

Mu-type opioid receptor = Mu-type opioid receptor (Homo sapiens, UniProt P35372); experiment: Counterscreen for agonists of heterodimerization of the mu 1 (OPRM1) and delta 1 (OPRD1) opioid receptors: Luminescence-based cell-based high throughput dose response assay to identify agonists of OPRM1 homodimerization.; type: functional;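 note: U2OS cells expressing OPRM1 and beta-arrestin as split beta-galactosidase partners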
Chain of Mu-type opioid receptor (P35372 whole entry): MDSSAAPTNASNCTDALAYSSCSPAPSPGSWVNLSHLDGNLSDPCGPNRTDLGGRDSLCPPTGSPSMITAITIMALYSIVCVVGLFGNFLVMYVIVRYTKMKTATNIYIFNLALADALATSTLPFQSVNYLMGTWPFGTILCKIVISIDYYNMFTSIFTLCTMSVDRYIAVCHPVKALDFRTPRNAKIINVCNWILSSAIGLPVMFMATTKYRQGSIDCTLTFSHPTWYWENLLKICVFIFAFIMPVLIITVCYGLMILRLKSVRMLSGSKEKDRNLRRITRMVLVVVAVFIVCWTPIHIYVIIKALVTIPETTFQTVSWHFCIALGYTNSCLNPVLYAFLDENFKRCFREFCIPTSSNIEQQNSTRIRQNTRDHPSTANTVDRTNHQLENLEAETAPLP

[15] = target: 5-hydroxytryptamine receptor 5A (Homo sapiens, UniProt P47898); experiment: Counterscreen for agonists of OPRM1-OPRD1 heterodimerization: luminescence-based cell-based high throughput dose response assay to identify agonists of 5-hydroxytryptamine (serotonin) 5A receptor (HTR5A). [Related pubchem assays (depositor defined):AID504326, AID504355, AID504692, AID504904, AID504905]; type: functional
Chain of 5-hydroxytryptamine receptor 5A (P47898 whole entry): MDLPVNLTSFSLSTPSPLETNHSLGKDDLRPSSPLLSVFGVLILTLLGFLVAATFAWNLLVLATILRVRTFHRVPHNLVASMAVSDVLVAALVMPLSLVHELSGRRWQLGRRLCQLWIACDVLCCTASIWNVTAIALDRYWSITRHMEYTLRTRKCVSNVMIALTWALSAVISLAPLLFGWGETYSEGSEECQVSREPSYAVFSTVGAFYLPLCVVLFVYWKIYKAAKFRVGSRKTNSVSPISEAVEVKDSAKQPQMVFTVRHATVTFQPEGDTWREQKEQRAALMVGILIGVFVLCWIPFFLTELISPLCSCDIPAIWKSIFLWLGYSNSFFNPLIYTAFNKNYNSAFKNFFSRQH

[16] = target: T4, DNA repair protein RAD52 homolog (Homo sapiens, UniProt P43351); type: functional, biochemical
T4 sequence (P43351 whole entry): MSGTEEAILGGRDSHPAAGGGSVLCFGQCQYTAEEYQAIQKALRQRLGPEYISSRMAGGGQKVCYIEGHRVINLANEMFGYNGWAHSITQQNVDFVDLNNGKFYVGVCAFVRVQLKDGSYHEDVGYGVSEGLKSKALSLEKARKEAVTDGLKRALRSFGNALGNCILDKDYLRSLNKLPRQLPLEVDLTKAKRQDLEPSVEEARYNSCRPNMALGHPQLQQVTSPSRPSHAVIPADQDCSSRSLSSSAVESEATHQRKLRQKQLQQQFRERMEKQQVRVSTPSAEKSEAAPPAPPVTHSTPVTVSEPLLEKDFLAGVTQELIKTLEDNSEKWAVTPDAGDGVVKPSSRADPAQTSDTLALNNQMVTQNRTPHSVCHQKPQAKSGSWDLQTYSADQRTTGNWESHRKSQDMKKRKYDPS

Cytochrome P450 3A4 = Cytochrome P450 3A4 (Homo sapiens, UniProt P08684); settings: Potency;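 note: confirmatory qHTS run detecting inhibitors and substrates of CYP3A4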
Chain of Cytochrome P450 3A4 (P08684 whole entry): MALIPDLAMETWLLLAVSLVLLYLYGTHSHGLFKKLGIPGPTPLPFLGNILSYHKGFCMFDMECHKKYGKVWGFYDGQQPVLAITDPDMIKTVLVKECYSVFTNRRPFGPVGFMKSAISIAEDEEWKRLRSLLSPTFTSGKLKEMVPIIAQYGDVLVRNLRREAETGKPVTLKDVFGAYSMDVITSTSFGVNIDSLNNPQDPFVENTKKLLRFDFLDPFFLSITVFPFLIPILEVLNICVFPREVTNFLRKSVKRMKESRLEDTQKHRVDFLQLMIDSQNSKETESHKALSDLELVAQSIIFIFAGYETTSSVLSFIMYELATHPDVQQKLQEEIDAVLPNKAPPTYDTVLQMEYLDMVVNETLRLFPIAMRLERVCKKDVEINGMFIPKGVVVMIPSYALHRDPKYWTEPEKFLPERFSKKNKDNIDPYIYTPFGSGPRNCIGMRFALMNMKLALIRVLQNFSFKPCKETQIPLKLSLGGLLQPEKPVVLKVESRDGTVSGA

**Q.** With `Cc1sc2nc(CSc3nnc(Cc4cccs4)n3C3CCCCC3)[nH]c(=O)c2c1C` as the molecule, how does the IC50 [1] read?
**A.** 15.5 µM (active)

**Q.** And the IC50 [2]?
**A.** > 100 µM (inactive)

**Q.** What about the IC50 (Prothrombin) of the same molecule?
**A.** 21.5 µM (active)

**Q.** Which IC50 [3] does the source give for `COc1cccc(CNc2ccc(N3CCCCC3)cc2)c1OC` here?
**A.** > 50 µM (not active)

**Q.** What about the IC50 [4] of the same molecule?
**A.** 11.5 µM (active)

**Q.** What about the IC50 [5] of the same molecule?
**A.** 5.96 µM (active)

**Q.** Which IC50 [1] does the source give for `O=C(Nc1cccnc1)c1cccc(-c2cc3ccccc3oc2=O)c1` here?
**A.** 9.88 µM (active)

**Q.** What about the IC50 [2] of the same molecule?
**A.** > 100 µM (inactive)

**Q.** And the IC50 (Prothrombin)?
**A.** 53.8 µM (active)

**Q.** Which results are given for `CCOc1cccc2sc(N(CCCN(C)C)C(=O)c3ccc(S(=O)(=O)N4CCCCCC4)cc3)nc12`?
**A.** AC50 (Escherichia coli [6]): 19.6 µM (active); AC50 (Escherichia coli [7]): > 380 µM (inactive)

**Q.** For `Cc1ccc(-n2nnnc2-c2cnoc2-c2cccc(F)c2)cc1`, which AC50 (Escherichia coli [6]) is on record?
**A.** 24.5 µM (active)

**Q.** And the AC50 (Escherichia coli [7])?
**A.** 126 µM (active)

**Q.** Which AC50 [8] does the source give for `CCN(CC)S(=O)(=O)c1cc(NC(=O)C2CCN(c3ncnc4sc(C)c(C)c34)CC2)ccc1Cl` here?
**A.** 5.08 µM (active)

**Q.** And the AC50 [9]?
**A.** 7.1 µM (active)

**Q.** What about the AC50 [10] of the same molecule?
**A.** 10.6 µM (active)

**Q.** Which results are given for `CCN=c1ccc(Br)cc(C(=O)/C=C/c2ccc(Cl)cc2Cl)c1O`?
**A.** IC50 [11]: 3.71 µM (active); IC50 (Vero [12]): 11.6 µM (active); CC50 (Vero [13]): 11.1 µM (active)

**Q.** What does the source list for `Cc1ccc(C(=O)COC(=O)c2cc(O)nc3ccccc23)cc1C`?
**A.** IC50 [1]: 22.3 µM (active); IC50 [2]: > 100 µM (inactive); IC50 (Prothrombin): > 100 µM (inactive)

**Q.** Which IC50 (Vero [12]) does the source give for `COc1ccccc1C1N(c2ccc(Cl)cc2)C(=O)C2CCCN21` (configuration not stated) here?
**A.** > 25 µM (active)

**Q.** With `CCN=C(S)NCCN1CCOCC1` as the molecule, how does the AC50 (Escherichia coli [6]) read?
**A.** 24.7 µM (active)

**Q.** Which AC50 (INS1) does the source give for `C[C@@H]1CN([C@@H](C)CO)C(=O)c2cccc(NC(=O)Nc3cccc4ccccc34)c2O[C@H]1CN(C)S(=O)(=O)c1ccc(-c2ccccc2)cc1` here?
**A.** > 195 µM (inactive)

**Q.** With `COc1ccc(S(=O)(=O)N(C)C[C@@H]2Oc3c(NC(=O)Nc4cccc(C(F)(F)F)c4)cccc3C(=O)N([C@@H](C)CO)C[C@H]2C)cc1` as the molecule, how does the AC50 (INS1) read?
**A.** 134 µM (active)

**Q.** For `O=C1CCCC2=C1CC(C(=O)OCc1ccccc1)C(=O)N2Cc1ccccc1` (configuration not stated), which AC50 (Escherichia coli [7]) is on record?
**A.** 13.8 µM (active)

**Q.** Which results are given for `CC(=O)C1CCC2C3CC=C4CC(SC(=N)N)CCC4(C)C3CCC12C` (configuration not stated)?
**A.** EC50 [14]: > 10.3 µM (inactive); EC50 (Mu-type opioid receptor): > 92.4 µM (inactive); EC50 [15]: > 92.4 µM (inactive); AC50 [16]: 7.48 µM (active)

**Q.** What does the source list for `CCC(C)C1NC(=O)C2CCCN2C(=O)C(CC(C)C)OC(=O)CCNC(=O)C(C)N(C)C(=O)C(C(C)C)N(C)C1=O` (configuration not stated) (cyclo([ξLac(3-iPr)]PI[NMeV][NMeA][βAla]); configuration not given here)?
**A.** IC50 (Vero [12]): 8.21 µM (active); CC50 (Vero [13]): > 25 µM (active)

**Q.** Which results are given for `O=C(/C=C/c1ccc(O)c(O)c1)OCCc1ccccc1` [CAFFEIC ACID PHENETHYL ESTER]?
**A.** AC50 [8]: 0.877 µM (active); AC50 [9]: > 70 µM (inactive); AC50 [10]: 1.11 µM (active); AC50 (Cytochrome P450 3A4): 31.6 µM (inconclusive)
